Test results published in patent US6153624A, “Pyrrolidine and piperidine derivatives and treatment of neurodegenerative disorders” (Hoffman-LaRoche Inc., priority 1998, dated 2000).

Experiments:
[1] = biological target: T1, N-methyl-D-aspartate (NMDA) receptor containing the NR2B subunit (Rattus norvegicus, UniProt P35439+Q00960); assay: 3H-Ro 25-6981 binding (displacement) to rat brain membranes; design: species or system rat (male Fullinsdorf albino); details: 3H-Ro 25-6981 5 nM, 2 hours at 4° C., pH 7.4, rat whole brain minus cerebellum and medulla oblongata
T1 construct: Membranes were prepared by homogenization of the whole brain minus cerebellum and medulla oblongata; from tissue; host or cells: rat whole brain minus cerebellum and medulla oblongata, membranes
Source text: In the following test RO 25-6981 ([R-(R*,S*)]-a-(4-Hydroxy-phenyl)-b-methyl-4-(phenyl-methyl)-1-piperidine propanol)has been used as a high and selective blocker of N-methyl-D-aspartate (NMDA) receptor containing the NR2B subjunit. The interaction of RO 25-6981 with NMDA receptors is characterized by the described test in vitro.
3H-Ro 25-6981 binding (Ro 25-6981 is [R-(R*,S*)]-a-(4-Hydroxy-phenyl)-b-methyl-4-(phenyl-methyl)-1-piperidine propanol)
Male Fullinsdorf albino rats weighing between 150-200 g were used. Membranes were prepared by homogenization of the whole brain minus cerebellum and medulla oblongata with a Polytron (10.000 rpm, 30 seconds), in 25 volumes of a cold Tris-HCl 50 mM, EDTA 10 mM, pH 7.1 buffer. The homogenate was centrifuged at 48.000 g for 10 minutes at 4° C. The pellet was resuspended using the Polytron in the same volume of buffer and the homogenate was incubated at 37° C. for 10 minutes. After centrifugation the pellet was homogenized in the same buffer and frozen at -80° C. for at least 16 hours but not more than 10 days. For the binding assay the homogenate was thawed at 37° C., centrifuged and the pellet was washed three times as above in a Tris-HCl 5 mM, pH 7.4 cold buffer. The final pellet was resuspended in the same buffer and used at a final concentration of 200 μg of protein/ml.
3H-Ro 25-6981 binding experiments were performed using a Tris-HCl 50 mM, pH 7.4 buffer. For displacement experiments 5 nM of 3H-Ro 25-6981 were used and non specific binding was measured using 10 μm of tetrahydroisoquinoline and usually it accounts for 10% of the total. The incubation time was 2 hours at 4° C. and the assay was stopped by filtration on Whatmann GF/B glass fiber filters (Unifilter-96, Packard, Zurich, Switzerland). The filters were washed 5 times with cold buffer. The radioactivity on the filter was counted on a Packard Top-count microplate scintillation counter after addition of […] of microscint 40 (Canberra Packard S. A., Zurich, Switzerland).
The effects of compounds were measured using a minimum of 8 concentrations and repeated at least once. The pooled normalized values were analyzed using a non-linear regression calculation program which provide IC50 with their relative upper and lower 95% confidence limits (RS1, BBN, USA).

NMDA receptors = details: Journ. of Pharmacology, Vol. 283, No.8, 1285-1297; cited from earlier work

T1 sequence (Q00960 27-1482, other chains not shown): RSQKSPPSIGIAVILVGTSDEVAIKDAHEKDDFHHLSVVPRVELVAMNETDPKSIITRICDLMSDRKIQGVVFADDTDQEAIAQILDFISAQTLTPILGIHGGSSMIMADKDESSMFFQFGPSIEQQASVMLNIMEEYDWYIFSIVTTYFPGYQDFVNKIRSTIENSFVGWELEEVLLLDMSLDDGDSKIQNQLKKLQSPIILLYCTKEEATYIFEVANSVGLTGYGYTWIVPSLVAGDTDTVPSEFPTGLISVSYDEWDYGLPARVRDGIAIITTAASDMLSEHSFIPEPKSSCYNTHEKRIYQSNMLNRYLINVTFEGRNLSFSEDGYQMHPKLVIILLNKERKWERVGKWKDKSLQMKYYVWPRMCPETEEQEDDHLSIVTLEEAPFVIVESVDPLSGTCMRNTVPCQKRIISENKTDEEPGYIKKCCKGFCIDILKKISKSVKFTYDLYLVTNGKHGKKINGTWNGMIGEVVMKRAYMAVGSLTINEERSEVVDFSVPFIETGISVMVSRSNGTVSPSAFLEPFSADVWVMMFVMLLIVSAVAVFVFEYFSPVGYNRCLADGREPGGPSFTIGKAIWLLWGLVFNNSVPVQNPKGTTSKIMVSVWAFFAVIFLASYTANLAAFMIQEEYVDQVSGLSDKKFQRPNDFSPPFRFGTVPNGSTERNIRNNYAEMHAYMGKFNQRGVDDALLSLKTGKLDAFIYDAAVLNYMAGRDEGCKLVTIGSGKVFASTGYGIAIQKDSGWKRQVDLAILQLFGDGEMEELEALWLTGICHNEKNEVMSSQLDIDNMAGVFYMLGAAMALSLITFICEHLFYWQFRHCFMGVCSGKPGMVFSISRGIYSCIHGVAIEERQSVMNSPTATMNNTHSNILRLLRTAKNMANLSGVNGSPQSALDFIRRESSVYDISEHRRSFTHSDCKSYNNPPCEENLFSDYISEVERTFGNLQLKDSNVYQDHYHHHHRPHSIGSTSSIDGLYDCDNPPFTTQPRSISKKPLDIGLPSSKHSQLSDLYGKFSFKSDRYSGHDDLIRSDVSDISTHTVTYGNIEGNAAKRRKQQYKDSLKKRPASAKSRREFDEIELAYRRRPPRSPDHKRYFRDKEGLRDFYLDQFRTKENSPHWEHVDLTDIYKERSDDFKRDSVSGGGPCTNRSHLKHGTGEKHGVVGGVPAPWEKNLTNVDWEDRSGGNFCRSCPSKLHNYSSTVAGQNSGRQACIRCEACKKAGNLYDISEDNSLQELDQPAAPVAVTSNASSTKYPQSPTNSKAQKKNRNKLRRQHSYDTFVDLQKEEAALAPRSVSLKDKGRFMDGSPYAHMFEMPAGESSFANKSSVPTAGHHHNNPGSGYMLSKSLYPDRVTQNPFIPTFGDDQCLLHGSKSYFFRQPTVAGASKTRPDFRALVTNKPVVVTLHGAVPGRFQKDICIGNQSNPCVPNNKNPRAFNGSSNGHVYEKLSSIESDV

Structure (SMILES)	IC50 [1] [nM]	demonstration of NMDA receptor block (in words) (NMDA receptors)
COc1ccc(CC[C@@H]2CC[C@H](Cc3ccc(O)cc3)N2)cc1 (racemic) [Example 4, (2RS,5RS)-4-[5-[2-(4-methoxy-phenyl)-ethyl]-pyrrolidin-2-ylmethyl]-phenol]	40	–
Oc1ccc([C@@H](O)[C@@H]2CC[C@@H](CCc3ccccc3)N2)cc1O (racemic) [Example 5, 4-[(RS)-hydroxy-[(2SR,5RS)-5-phenethyl-pyrrolidin-2-yl]-methyl]-benzene-1,2-diol]	40	–
COc1ccc(CC[C@@H]2CCC[C@H](Cc3ccc(O)cc3)N2)cc1 (racemic) [Example 6, (2RS,6SR)-4-[6-[2-(4-methoxy-phenyl)-ethyl]-piperidin-2-ylmethyl]-phenol]	45	–
COc1ccc(CCC2CCC(C(=O)c3ccc(O)cc3)N2)cc1 (racemic) [Example 7, Mixture of (2RS,5RS)-- and (2RS,5SR)-(4-hydroxy-phenyl)-[5-[2-(4-methoxy-phenyl)-ethyl]-pyrrolidin-2-yl]-methanone]	70	–
Oc1ccc([C@H]2OCCN3[C@@H](CCc4ccccc4)CC[C@H]23)cc1 (racemic) [Example 35, (1RS,6SR,8aRS)-4-(6-phenethyl-hexahydro-pyrrolo[2,1-c][1,4]oxazin-1-yl)-phenol]	90	–
Oc1ccc([C@H]2OCN3[C@H](CCc4ccccc4)CC[C@@H]23)cc1 (racemic) [Example 37, (1RS ,5RS,7aSR)-4-(5-phenethyl-tetrahydro-pyrrolo[1,2-c]oxazol-1-yl)-phenol]	50	–
C[C@@H](CN1CCC(Cc2ccccc2)CC1)[C@@H](O)c1ccc(O)cc1 [RO 25-6981, [R-(R*,S*)]-a-(4-Hydroxy-phenyl)-b-methyl-4-(phenyl-methyl)-1-piperidine propanol]	–	highly selective, activity-dependent blocker of NMDA receptors

Now from value to molecule, other results behind:

IC50 [1] [nM]	Structure (SMILES)	demonstration of NMDA receptor block (in words) (NMDA receptors)
20	Oc1ccc([C@@H](O)[C@@H]2CC[C@@H](CCc3ccccc3)N2)cc1 (racemic) [Example 1, 4-[(RS)-hydroxy-[(2SR,5RS)-5-phenethyl-pyrrolidin-2-yl]-methyl]-phenol]	–
30	COc1ccc(CC[C@H]2CC[C@@H]([C@H](O)c3ccc(O)c(F)c3)N2)cc1 (racemic) [Example 2, 2-fluoro-4-[(RS)-hydroxy-[(2SR,5SR)-5-[2-(4-methoxy-phenyl)-ethyl]-pyrrolidin-2-yl]-methyl]-phenol]	–
30	COc1ccc(CC[C@@H]2CCC[C@H](C(O)c3ccc(O)cc3)N2)cc1 (stereo partly shown) [Example 3]	–
